# Assays:
# acne vulgaris [1] = assay: Global clinical-improvement grading by blinded dermatologists from photographs; format: in vivo, human
# Protocol: (§1) Sites were marked withtemplates to precisely relocate each test area. […] Then, 20% topical ALA in a hydroalcoholic vehicle (Levulan, a gift from DUSA pharmaceutical) was applied for 3h under occlusion with plastic film (Saran wrap), and 150 J/cm^2 broad band light (550-700 nm) was given to the ALA-PDT and light alone areas. […] In both groups, subjects returned one week after treatments for clinical evaluations and at weeks 2, 3, 10 and 20 for clinical, fluorescence, and SER evaluations.
# Clinical improvement was globally assessed by 3 dermatologists unaware of the status of treatment, who blindly graded changes in acne from fixed-magnification clinical photographs, after being shown a small set standardized series of training slides not used in the data evaluation. The grading scale was defined as −3 for >50% exacerbation, −2 for 25^+−50% exacerbation, −1 for 1^+−25% exacerbation, 0 if unchanged, 1 for 1^+−25% improvement, 2 for 25^+−50% improvement, 3 for 50^+−75% improvement, 4 for 75^+−99% improvement, and 5 for 100% improvement, as compared to the baseline.
# (§2) Statistical significance was defined as p value of less than 0.05.
# P. acnes = assay: Fluorescence photography of follicular bacterial porphyrin (red fluorescent dots); format: in vivo, human
# Protocol: as §1
# A Nikon E2N digital camera body with a Nikon 105 mm macro lens was used. A filter (Corion LL-550S) was placed on the lens to block light below 550 nm. The excitation light source was composed of two synchronized photoflashes with Norman 400 watt-second lampheads (FT400/FT6), mounted on a stationary tower with angles of incidence of 60 degrees bilaterally. Two 400 nm bandpass filters with 5 nm bandwidth (Corion S40-400S) were placed on the flashes. By this method, the punctate orange-red fluorescence of hair follicles populated with P. acnes was seen. Fluorescence emission has been attributed to bacterial coproporphyrin III and protoporphyrin IX, and intensity of fluorescence is related to the P. acnes population. Fluorescence photography was performed at week, 0, 2, 3, 10 and 20 in all sites. The number of punctate red flourescent dots was counted blindly for each test area.
# as §2
# [2] = Adverse effects, clinical evaluation and subjective sensation; format: in vivo, human; conditions: for Subjects with burning sensation / Subjects with itching: multiple ALA-PDT
# Protocol: Adverse effects were scored by clinical evaluation of erythema, edema, loss of epidermis, hyperpigmentation, hemorrhage, vesiculation, and exfoliation on a visual-analogue scale from 0 to 3 (0=absent, 1=mild, 2=moderate, 3=severe) for each finding. Subjective sensation of pain, burning, and itching was generally maximum about 10 minutes into light exposure, and was ranked at that time and the end of treatment (1 hour), by subjects on a scale from 0 to 3 similar to above.
# pilosebaceous units = assay: ALA-induced PpIX fluorescence in skin (fluorescence microscopy / photography); format: in vivo, human
# Protocol: Punch biopsy specimens (4 mm) were taken immediately after PDT, a few weeks after PDT, and at 20 weeks from both the untreated control and ALA-PDT areas. […] Histologic examination was performed. […] To determine the level of PpIX converted from ALA in the pilosebaceous units, punch biopsy specimens were also taken from ALA-treated areas after 3 h occlusion as described above.
# sebaceous glands [3] = assay: Sebum excretion rate (SER) by Sebutape; conditions: ALA plus red light
# sebaceous glands [4] = assay: Histologic examination and planimetry of punch biopsies; conditions: for Reduction of cytoplasm/nuclear cross-section area ratio in sebocyte relative to non-treatment: 3 weeks
# acne vulgaris [5] = assay: Inflammatory acne score, open-label human study of topical ALA-PDT on the back
# [6] = multiple treatments, ALA plus red light
# [7] = single treatment, ALA plus red light
# [8] = multiple-treatment subjects, after 4 treatments
# [9] = single-treatment subjects, at 20 weeks
# [10] = multiple treatment group, 20 weeks after the last treatment
# [11] = twenty weeks after a single ALA-PDT treatment
structure (smiles),measurement,setting,value
"NCC(=O)CCC(=O)O [ALA, 5-aminolevulinic acid]","Global clinical-improvement score, multiple versus single treatment group","acne vulgaris [1]; ALA plus red light, first 2 follow-up visits (week 1 & 2)",significantly better improvement than the single ALA-PDT treatment group
same,"Duration of obvious and significant improvement of acne, blinded clinical assessment",acne vulgaris [1]; after 4 treatments,at least 20 weeks
same,"Duration of obvious and significant improvement of acne, blinded clinical assessment",acne vulgaris [1]; after a single ALA-PDT treatment,at least 10 weeks
same,Global clinical-improvement score versus baseline,"acne vulgaris [1]; multiple treatments, ALA alone, visit 2 and visit 5",improvement reaching statistical significance
same,Global clinical-improvement score versus baseline,acne vulgaris [1]; [6],Significant improvement
same,Global clinical-improvement score versus the other 3 sites,acne vulgaris [1]; [6],"significantly better improvement in the ALA-PDT treated site than the other 3 sites, at all follow-up visits"
same,Global clinical-improvement score versus baseline,acne vulgaris [1]; [7],significant global improvement starting week 3 and extending through week 20
same,"Global clinical-improvement score, difference to the other three treatment sites",acne vulgaris [1]; [7],statistically significant at weeks 3 and 10
same,"Fluorescence related to P. acnes, multiple versus single treatment group","P. acnes; ALA plus red light, four times versus single","better, but not significant, improvement"
same,Duration of significant decrease of fluorescence of endogenous porphyrins associated with P. acnes,P. acnes; after both single and multiple ALA-PDT,at least 20 weeks
same,Fluorescence related to P. acnes versus baseline,"P. acnes; multiple treatments, ALA alone, week 10 and 20",significantly greater fluorescence than baseline
same,Fluorescence related to P. acnes versus baseline,P. acnes; [6],"significant loss of P. acnes, fluorescence, starting at follow-up visit 2"
same,"Fluorescence related to P. acnes, difference to the other 3 test sites",P. acnes; [6],statistically significant for all visits
same,Fluorescence related to P. acnes versus baseline,P. acnes; [7],"significant loss of fluorescence related to P. acnes, which lasted for all 4 follow-up visits"
same,"Fluorescence related to P. acnes, difference to the other 3 test sites",P. acnes; [7],statistically significant for all visits
same,Patients with acute eruption of inflammatory acneiform lesions,"[2]; ALA-PDT sites only, both groups",100%
same,Exfoliation after 3 weeks post treatment,[2]; all subjects,None of the subjects had exfoliation
same,Scarring,"[2]; all subjects, both groups",no site in any subject had any scarring
same,"Erythema and edema, time course","[2]; both groups, 1 hour after treatment",substantial decrease in erythema and edema by 1 hour after treatment
same,Subjects with burning sensation,[2]; treatment 1,9%
same,Subjects with itching,[2]; treatment 1,73%
same,Subjects with burning sensation,[2]; treatment 2,67%
same,Subjects with itching,[2]; treatment 2,73%
same,Subjects with burning sensation,[2]; treatment 3,67%
same,Subjects with itching,[2]; treatment 3,55%
same,Subjects with burning sensation,[2]; treatment 4,73%
same,Subjects with itching,[2]; treatment 4,55%
same,Subjects still showing some degree of pigmentation,"[2]; multiple PDT, 20 weeks after treatment",55%
same,Patients who could not continue the weekly treatment scheme and had to postpone their next treatment,[2]; multiple treatment group,Six
same,Acneiform lesions induced by subsequent treatments,[2]; multiple-treatment group,almost no new acneiform lesions were observed after treatment 4
same,"Duration of transient purpura, average",[2]; [8],1 week
same,"Subjects with superficial but very prominent exfoliation, transient purpura and partial loss of epidermis",[2]; [8],10%
same,Main subjective discomfort,[2]; single ALA-PDT group,"itching was the main discomfort in the single ALA-PDT group, and pain was the least"
same,Subjects in whom erythema faded away completely,[2]; [9],82%
same,Subjects in whom hyperpigmentation faded away completely,[2]; [9],91%
same,Porphyrin fluorescence of fresh-frozen sections compared with untreated skin,"pilosebaceous units; after ALA application, 3 h occlusion, fluorescence microscopy",bright porphyrin fluorescence in epidermis and pilosebaceous units
same,"PpIX fluorescence, sebocytes versus follicular epithelial cells","pilosebaceous units; after ALA application, fluorescence microscopy",brighter PpIX fluorescence in sebocytes than in the adjacent follicular epithelial cells
same,"ALA-induced PpIX fluorescence, acne lesions versus surrounding tissue",pilosebaceous units; fluorescence photography,greater in acne lesions than surrounding tissue
same,Sebum excretion after PDT (summary),sebaceous glands [3],"eliminated for several weeks, and decreased for 20 weeks"
same,"SER, multiple versus single treatment group","sebaceous glands [3]; difference significant only at 20 weeks, all visits combined p=0.001",suppressed SER more than single ALA-PDT
same,"SER, difference to the other 3 areas",sebaceous glands [3]; multiple treatments,statistically significant at all 4 visits
same,Sebum excretion rate (SER) versus baseline,sebaceous glands [3]; multiple treatments,"significant decrease in SER, at all follow-up visits"
same,SER versus the other test sites,sebaceous glands [3]; single treatment,"significantly lower than any other test sites, at each follow-up visit"
same,Sebum excretion rate (SER) versus baseline,"sebaceous glands [3]; single treatment, weeks 2, 3, 20",significant decrease of SER
same,Reduction of sebaceous gland size compared with untreated control area,sebaceous glands [4]; 3 weeks after multiple ALA-PDT,55%
same,Reduction of sebaceous gland size compared with untreated control area,sebaceous glands [4]; 3 weeks after single ALA-PDT,30%
same,Histologic finding in sebaceous gland lobules,sebaceous glands [4]; 20 weeks after multiple ALA-PDT treatments,complete destruction or 25 marked atrophy of sebaceous gland lobules
same,"Reduction of sebaceous gland size, mean decrease",sebaceous glands [4]; immediately after PDT,40%
same,Reduction of cytoplasm/nuclear cross-section area ratio in sebocyte relative to non-treatment,sebaceous glands [4]; multiple PDT,56%
same,Reduction of sebaceous gland size,sebaceous glands [4]; [10],45%
same,"Reduction of sebaceous gland size, range",sebaceous glands [4]; [10],15-80%
same,Reduction of sebocyte cytoplasm/nuclear area,sebaceous glands [4]; [10],46%
same,"Reduction of sebocyte cytoplasm/nuclear area, range",sebaceous glands [4]; [10],39-53%
same,Reduction of cytoplasm/nuclear cross-section area ratio in sebocyte relative to non-treatment,sebaceous glands [4]; single PDT,38%
same,"Reduction of sebaceous gland size, mean decrease",sebaceous glands [4]; [11],17%
same,Sebocyte cytoplasm/nuclear area ratio,sebaceous glands [4]; [11],not reduced
same,"Inflammatory acne score, multiple versus single treatment group, all follow-up visits combined","acne vulgaris [5]; ALA alone, P=0.007",better improvement than the single treatment group
same,"Inflammatory acne score, multiple versus single treatment group","acne vulgaris [5]; ALA plus red light, first 3 follow-up visits",significantly better improvement than the single ALA-PDT treatment group
same,"Inflammatory acne score, multiple versus single treatment group, all follow-up visits combined","acne vulgaris [5]; ALA plus red light, p<0.001",better improvement than the single treatment group
same,Duration of clinical and statistically significant clearance of inflammatory acne,acne vulgaris [5]; after a single treatment,≥ 10 weeks
same,Duration of clinical and statistically significant clearance of inflammatory acne,acne vulgaris [5]; after multiple ALA-PDT treatments,at least 20 weeks
same,"Inflammatory acne score, change from baseline","acne vulgaris [5]; multiple (4 weekly) treatments, ALA plus red light",obvious and statistically significant improvement in acne at all follow-up visits
same,"Inflammatory acne score, change from baseline","acne vulgaris [5]; multiple treatments, ALA alone, no light",no improvement
same,"Inflammatory acne score, change from baseline versus the other three sites","acne vulgaris [5]; multiple treatments, ALA plus red light, all visits, p<0.05",significantly greater
same,"Inflammatory acne score, ALA alone versus untreated area","acne vulgaris [5]; multiple treatments, visit 2 (week 2) only, p=0.046",barely-significant improvement
same,"Inflammatory acne score, change from baseline","acne vulgaris [5]; single treatment, 20% topical ALA 3 h occlusion + 150 J/cm^2 red light","improvement in acne, which was statistically significant starting 3 weeks after treatment"
same,"Inflammatory acne score, change from baseline","acne vulgaris [5]; single treatment, ALA alone, no light, all visits",slightly worse acne not significantly different than baseline
same,"Inflammatory acne score, change from baseline versus the other three areas",acne vulgaris [5]; [7],"the differences were statistically significant at 3, 10, 20 weeks"
